# Test results as given in patent US11603355B2, “Charged ion channel blockers and methods for use” (Nocion Therapeutics, Inc., priority 2019, dated 2023).
# Counter-ions that a name gives are not always drawn.
# Molecular target: T1, NaV1.7 (Homo sapiens, UniProt Q15858)
# T1 construct: expressed in transfected cells; host or cells: HEK293 (tetracycline-inducible)
# Assay: Automated patch clamp (Qube 384), internal block of NaV1.7
# Assay type: cell-based
# Details: IC50, compound in internal solution, HEK293 cells, read-out: Nav1.7 Intracellular Inhibition
# Method in brief: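 Tetracycline-induced HEK293 cells, whole-cell Qube recording at 22 degrees; compounds dissolved in internal solution (CsF-based, pH 7.3), exchanged after baseline. Held at −100 mV, 10 ms pulses to −20 mV at 5 Hz for 10 min; remaining current (last 3 points) vs baseline, rundown-corrected with no-drug cells; Hill-fit IC50.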
# T1 sequence (Q15858 whole entry): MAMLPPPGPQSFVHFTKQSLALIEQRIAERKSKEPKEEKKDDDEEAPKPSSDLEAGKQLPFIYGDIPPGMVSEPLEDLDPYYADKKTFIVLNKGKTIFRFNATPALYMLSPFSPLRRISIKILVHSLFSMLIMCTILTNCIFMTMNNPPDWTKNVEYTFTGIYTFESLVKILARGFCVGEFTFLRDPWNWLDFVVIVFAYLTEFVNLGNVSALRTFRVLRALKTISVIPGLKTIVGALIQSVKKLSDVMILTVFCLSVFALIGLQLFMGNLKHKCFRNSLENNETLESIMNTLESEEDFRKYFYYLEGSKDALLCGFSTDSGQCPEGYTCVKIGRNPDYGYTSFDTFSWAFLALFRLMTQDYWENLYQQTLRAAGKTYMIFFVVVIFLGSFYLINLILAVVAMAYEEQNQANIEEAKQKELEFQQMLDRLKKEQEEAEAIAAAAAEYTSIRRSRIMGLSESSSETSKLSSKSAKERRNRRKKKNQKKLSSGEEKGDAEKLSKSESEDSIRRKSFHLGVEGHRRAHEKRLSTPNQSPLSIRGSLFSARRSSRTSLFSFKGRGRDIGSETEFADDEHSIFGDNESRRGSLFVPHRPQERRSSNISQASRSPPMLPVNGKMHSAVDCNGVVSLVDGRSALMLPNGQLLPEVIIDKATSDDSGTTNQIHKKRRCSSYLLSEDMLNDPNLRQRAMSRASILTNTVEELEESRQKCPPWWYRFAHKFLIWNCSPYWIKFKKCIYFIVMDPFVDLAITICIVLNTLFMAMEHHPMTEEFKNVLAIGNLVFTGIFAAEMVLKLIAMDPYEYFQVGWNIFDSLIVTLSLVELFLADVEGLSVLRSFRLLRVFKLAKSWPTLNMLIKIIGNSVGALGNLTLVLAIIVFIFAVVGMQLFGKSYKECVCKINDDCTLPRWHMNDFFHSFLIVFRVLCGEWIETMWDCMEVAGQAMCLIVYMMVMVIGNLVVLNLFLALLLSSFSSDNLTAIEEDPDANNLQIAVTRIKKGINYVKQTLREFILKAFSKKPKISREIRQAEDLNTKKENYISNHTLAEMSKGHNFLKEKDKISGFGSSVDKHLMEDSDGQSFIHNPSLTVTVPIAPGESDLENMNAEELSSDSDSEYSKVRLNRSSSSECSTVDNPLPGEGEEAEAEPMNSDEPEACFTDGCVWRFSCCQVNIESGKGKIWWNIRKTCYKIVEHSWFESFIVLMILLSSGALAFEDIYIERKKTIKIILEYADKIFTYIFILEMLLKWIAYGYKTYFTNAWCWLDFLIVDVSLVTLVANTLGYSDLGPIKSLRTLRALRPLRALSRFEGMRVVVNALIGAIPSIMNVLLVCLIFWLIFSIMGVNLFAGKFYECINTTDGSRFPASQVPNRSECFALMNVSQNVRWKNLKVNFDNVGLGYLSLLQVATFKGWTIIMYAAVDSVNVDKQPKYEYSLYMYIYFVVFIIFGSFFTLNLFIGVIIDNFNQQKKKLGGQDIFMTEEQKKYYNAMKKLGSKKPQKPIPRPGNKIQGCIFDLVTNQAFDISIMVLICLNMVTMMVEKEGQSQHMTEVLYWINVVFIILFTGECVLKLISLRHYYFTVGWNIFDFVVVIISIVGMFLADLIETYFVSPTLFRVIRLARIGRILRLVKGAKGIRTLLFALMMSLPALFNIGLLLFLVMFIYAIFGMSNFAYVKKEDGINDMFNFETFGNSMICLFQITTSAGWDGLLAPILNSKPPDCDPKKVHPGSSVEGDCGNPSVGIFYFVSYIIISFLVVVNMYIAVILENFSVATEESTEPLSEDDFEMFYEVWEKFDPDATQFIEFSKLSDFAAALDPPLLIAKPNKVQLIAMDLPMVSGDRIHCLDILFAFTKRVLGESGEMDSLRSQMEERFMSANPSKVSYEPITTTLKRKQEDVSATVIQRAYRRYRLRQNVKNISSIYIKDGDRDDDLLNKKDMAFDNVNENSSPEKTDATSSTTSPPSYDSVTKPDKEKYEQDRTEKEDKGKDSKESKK
row,IC50 [µM],Compound
1,1 to 3,"Cc1cccc(C)c1N1CCC([N+]2(Cc3ccccc3)CCCCC2)C1=O.[Br-] (stereo not drawn) [Compound 89A, 1-benzyl-1-(1-(2,6-dimethylphenyl)-2-oxopyrrolidin-3-yl)piperidin-1-ium bromide]"
2,0.3 to 1,"CCOC(=O)C1CCC[N+](CC(=O)Nc2c(C)cccc2C)(Cc2ccccc2)C1.[Br-] (stereo not drawn) [Compound 45A, 1-benzyl-1-(2-((2,6-dimethylphenyl)amino)-2-oxoethyl)-3-(ethoxycarbonyl) piperidin-1-ium bromide]"
3,< 0.3,"CCC(=O)OC1CCC[N+](CC(=O)Nc2c(C)cccc2C)(Cc2ccccc2)C1.[Br-] (stereo not drawn) [Compound 52A, 1-benzyl-1-(2-((2,6-dimethylphenyl)amino)-2-oxoethyl)-3-(propionyloxy) piperidin-1-ium bromide]"
4,0.3 to 1,"Cc1cccc(C)c1NC(=O)C[N+]1(Cc2ccccc2)CCCC(C(N)=O)C1.[Br-] (mixture of isomers) [Compound 53A, 1-benzyl-3-carbamoyl-1-(2-((2,6-dimethylphenyl)amino)-2-oxoethyl) piperidin-1-ium bromide]"
5,0.3 to 1,Cc1cccc(C#N)c1NC(=O)C[N+]1(Cc2ccccc2)CCCCCC1.[Br-] [Compound 72A]
6,1 to 3,"Cc1cccc(C)c1N(C)C(=O)C[N+]1(Cc2ccccc2)CCCCCC1 [Compound 38A, 1-benzyl-1-(2-((2,6-dimethylphenyl) (methyl)amino)-2-oxoethyl) azepan-1-ium formate]"
7,1 to 3,Cc1cccc(-c2ccccc2)c1NC(=O)C[N+]1(Cc2ccccc2)CCCCCC1.[Br-] [Compound 76A]
8,0.3 to 1,COc1cccc(C)c1NC(=O)C[N+]1(Cc2ccccc2)CCCCCC1 [Compound 71A]
9,0.3 to 1,Cc1cccc(C(C)C)c1NC(=O)C[N+]1(Cc2ccccc2)CCCCCC1.[Br-] [Compound 74A]
10,0.3 to 1,"Cc1cccc(C)c1C(=O)OCC[N+]1(Cc2ccccc2)CCCCCC1.[Br-] [Compound 82A, 1-benzyl-1-(2-((2,6-dimethylbenzoyl)oxy)ethyl) azepan-1-ium bromide]"
11,0.3 to 1,"Cc1cccc(C)c1NC(=O)C[N+]1(Cc2ccccc2)CCCC(C(=O)OC(C)C)C1 (mixture of isomers) [Compound 46A, 1-benzyl-1-(2-((2,6-dimethylphenyl)amino)-2-oxoethyl)-3-(isopropoxycarbonyl) piperidin-1-ium trifluoroacetate salt]"
12,0.3 to 1,Cc1cccc(C)c1N1CCC([N+]2(Cc3ccccc3)CCCCCCC2)C1=O.[Br-] (stereo not drawn) [Compound 90A]
13,0.3 to 1,"CCNC(=O)C1CCC[N+](CC(=O)Nc2c(C)cccc2C)(Cc2ccccc2)C1.[Br-] (stereo not drawn) [Compound 54A, 1-benzyl-1-(2-((2,6-dimethylphenyl)amino)-2-oxoethyl)-3-(ethylcarbamoyl) piperidin-1-ium bromide]"
14,0.3 to 1,"CCCOC(=O)N1CCC[N+](CC(=O)Nc2c(C)cccc2C)(Cc2ccccc2)CC1.[Br-] (stereo not drawn) [Compound 68A, 1-benzyl-1-(2-((2,6-dimethylphenyl)amino)-2-oxoethyl)-4-(propoxycarbonyl)-1,4-diazepan-1-ium bromide]"
15,0.3 to 1,CCCNC(=O)C1CCC[N+](CC(=O)Nc2c(C)cccc2C)(Cc2ccccc2)C1 (stereo not drawn) [Compound 57A]
16,0.3 to 1,Cc1cccc(C)c1NC(=O)C[N+]1(Cc2ccccc2)CCCC(C(=O)N(C)C)C1.[Br-] (stereo not drawn) [Compound 65A]
17,< 0.3,"COC(=O)C1CC[N+](CC(=O)Nc2c(C)cccc2C)(Cc2ccccc2)CC1.[Br-] (stereo not drawn) [Compound 44A, 1-benzyl-1-(2-((2,6-dimethylphenyl)amino)-2-oxoethyl)-4-(methoxycarbonyl) piperidin-1-ium bromide]"
18,0.3 to 1,"Cc1cccc(C)c1NC(=O)C[N+]1(Cc2ccccc2)CCCC(F)(F)C1.[Br-] (stereo not drawn) [Compound 32A, 1-benzyl-1-(2-((2,6-dimethylphenyl)amino)-2-oxoethyl)-3,3-difluoropiperidin-1-ium bromide]"

row,IC50 [µM],Compound
1,0.3 to 1,"CCC(=O)Oc1cccc(C)c1NC(=O)C[N+]1(Cc2ccccc2)CCCCCC1.[Br-] [Compound 80A, 1-benzyl-1-(2-((2-methyl-6-(propionyloxy)phenyl)amino)-2-oxoethyl) azepan-1-ium bromide]"
2,1 to 3,"Cc1cccc(C)c1N1CCCC([N+]2(Cc3ccccc3)CCCC2)C1=O.[Br-] (stereo not drawn) [Compound 91A, 1-benzyl-1-(1-(2,6-dimethylphenyl)-2-oxopiperidin-3-yl) pyrrolidin-1-ium bromide]"
3,0.3 to 1,CCOc1cccc(C)c1NC(=O)C[N+]1(Cc2ccccc2)CCCCCC1.[Br-] [Compound 77A]
4,0.3 to 1,"Cc1cccc(F)c1NC(=O)C[N+]1(Cc2ccccc2)CCCCCC1.[Br-] [Compound 69A, 1-benzyl-1-(2-((2-fluoro-6-methylphenyl)amino)-2-oxoethyl)azepan-1-ium bromide]"
5,0.3 to 1,"COC(=O)c1ccccc1C[N+]1(CC(=O)Nc2c(C)cccc2C)CCCCC1.[Br-] [Compound 37A, 1-(2-((2,6-dimethylphenyl)amino)-2-oxoethyl)-1-(2-(methoxycarbonyl)benzyl) piperidin-1-ium bromide]"
6,1 to 3,CCCc1cccc(C)c1NC(=O)C[N+]1(Cc2ccccc2)CCCCCC1.[Br-] [Compound 75A]
7,1 to 3,"COC(=O)c1cccc(C[N+]2(CC(=O)Nc3c(C)cccc3C)CCCCC2)c1.[Br-] [Compound 35A, 1-(2-((2,6-dimethylphenyl)amino)-2-oxoethyl)-1-(3-(methoxycarbonyl)benzyl) piperidin-1-ium bromide]"
8,0.3 to 1,Cc1cccc(C)c1NC(=O)C[N+]1(Cc2ccccc2)CCCC(C(=O)N2CCCC2)C1 (stereo not drawn) [Compound 62A]
9,0.3 to 1,CNC(=O)C1CCC[N+](CC(=O)Nc2c(C)cccc2C)(Cc2ccccc2)C1 (stereo not drawn) [Compound 55A]
10,0.3 to 1,Cc1cccc(C)c1NC(=O)C[N+]1(Cc2ccccc2)CCCC(C(=O)N2CCCCC2)C1 (stereo not drawn) [Compound 63A]
11,0.3 to 1,"[2H]c1c([2H])c([2H])c(C[N+]2(CC(=O)Nc3c(C)cccc3C)CCCCCC2)c([2H])c1[2H].[Cl-] [Compound 33A, 1-(2-((2,6-dimethylphenyl)amino)-2-oxoethyl)-1-((phenyl-d5)methyl) azepan-1-ium chloride]"
12,3 to 10,"CCCCNc1ccc(NC(=O)C[N+]2(Cc3ccccc3)CCCCCC2)cc1.O=C[O-] [Compound 41A, 1-benzyl-1-(2-((4-(butylamino)phenyl)amino)-2-oxoethyl) azepan-1-ium formate]"
13,1 to 3,"CC[N+](CC)(CCCc1ccccc1)CC(=O)Nc1c(C)cccc1C.[Br-] [Compound 86A, N-(2-((2,6-dimethylphenyl)amino)-2-oxoethyl)-N, N-diethyl-3-phenylpropan-1-aminium bromide]"
14,3 to 10,"COC(=O)c1ccc(C[N+]2(CC(=O)Nc3c(C)cccc3C)CCCCC2)cc1.[Br-] [Compound 36A, 1-(2-((2,6-dimethylphenyl)amino)-2-oxoethyl)-1-(4-(methoxycarbonyl)benzyl) piperidin-1-ium bromide]"
15,1 to 3,CCN(CC)C(=O)C1CCC[N+](CC(=O)Nc2c(C)cccc2C)(Cc2ccccc2)C1 (stereo not drawn) [Compound 66A]
16,1 to 3,Cc1cccc(C)c1NC(=O)C[N+]1(Cc2ccccc2)CCCC(C(=O)NC(C)C)C1 (stereo not drawn) [Compound 56A]
17,1 to 3,"CCCOC(=O)C1CCC[N+](CC(=O)Nc2c(C)cccc2C)(Cc2ccccc2)C1.[Br-] (stereo not drawn) [Compound 47A, 1-benzyl-1-(2-((2,6-dimethylphenyl)amino)-2-oxoethyl)-3-(propoxycarbonyl) piperidin-1-ium bromide]"

row,Compound,IC50 [µM]
1,1-benzyl-1-(2-((2-(dimethylcarbamoyl)-6-methylphenyl) amino)-2-oxoethyl) azepan-1-ium bromide [Compound 81A],0.3 to 1
